Experimental data reported in patent publication US11059846B2, “Immune stimulating compound” (ISR IMMUNE SYSTEM REGULATION HOLDING AB (PUBL), priority 2017, dated 2021).

How the values were obtained:
human TLR2 = target: T1, human TLR2 (Homo sapiens, UniProt O60603); experiment: TLR2 reporter assay (HEK-293-TLR cells, SEAP reporter); assay type: cell-based; settings: compound 1 down to 5 μM; others up to 20 μM
T1 construct: host or cells: recombinant HEK-293-TLR cell lines
Protocol: These cell lines functionally over-express human TLR2 protein as well as a reporter gene which is a secreted alkaline phosphatase (SEAP). The production of this reporter gene is driven by an NFkB inducible promoter. […] 20 μl of each test article were used to stimulate the hTLR2 reporter cell lines in a 200 μl of final reaction volume. Samples were tested in duplicate, with at least two concentrations tested −20 μM and 10 μM.
Compounds were tested using a TLR2 reporter assay (see general methods) that measured for stimulation of the TLR2 receptor.

[1] = system: CMV specific CD8+ T cells; experiment: CMV cultures: phenotype of CMV specific CD8+ T cells; assay type: cell-based, Human; settings: CMV antigen, 6 days
Protocol: FIG. 8. Upregulation of IL-7 receptor a (CD127) on CMV specific CD8 T cells after incubation with compound 1, measured with flow cytometry.
Human peripheral blood mononuclear cells (PBMCs) were purified from healthy CMV positive donors with Ficoll-Paque density centrifugation. The PBMC were labeled with 5 μM celltrace violet (Invitrogen) in PBS for 15 minutes and then washed with complete cell culture medium. The labeled PBMC was cultured in the presence of a peptide library spanning the CMV pp65 protein (1 μg peptide/ml, JPT) in AIM-V media (Invitrogen) supplemented with L-glutamine, Sodium pyruvate (Sigma), 10% fetal bovine serum, 100 μg/mL penicillin and 100 μg/mL streptomycin (Hyclone) for 6-8 days in 37° C., 5% CO2. Cell proliferation was assessed with flow cytomtery using a BD FACS Canto II flow cytometer.
Study 7: CMV virus specific T cell proliferation was also affected by compound 1. […] CD127 is crucial for T cell homeostasis, differentiation and function, and reduced expression correlates with disease severity in HIV and other chronic viral diseases (Crawley et al Sem Imm 2012).

PBMCs = experiment: Cytokine/chemokine secretion from PBMC, cytometric bead assay; assay type: cell-based; settings: 2 days
Protocol: (§1) FIG. 11: Chemokine RANTES secretion (as measured by cytometric bead assay) from PBMC or macrophages stimulated with indicated compound for 48 h.
(§2) FIG. 12: IL12p70 secretion (as measured by cytometric bead assay) from PBMC or macrophages stimulated with indicated compound for 48 h.
(§3) FIG. 13: IL1b secretion (as measured by cytometric bead assay) from PBMC, macro-phages or CD4 T cells stimulated with indicated compound for 48 h.
(§4) Study 10: PBMCs and macrophages where exposed to compounds 1 or 2 for 2 days (FIG. 11).
(§5) Study 11: PBMCs and macrophages where exposed to compounds 1 and 2 for 2 days.
(§6) Study 12: PBMCs, macrophages and CD4+ T cells where exposed to compounds 1 and 2 for 2 days.

[2] = system: Macrophages from healthy donors; experiment: Cytokine/chemokine secretion from macrophages, cytometric bead assay; assay type: cell-based; settings: 2 days
Protocol: FIG. 10: Interferon-gamma secretion (as measured by cytometric bead assay) from macrophages stimulated with indicated compound for 48 h.
as §1, §2, §3
Study 9: Macrophages from healthy donors where exposed to compounds 1 or 2 for 48 hours. […] Compound 1 is therefore able to induce IFN-gamma secretion in macrophages from healthy donors.
as §4, §5, §6

CD4+ T cells = experiment: IL-1beta secretion from CD4+ T cells, cytometric bead assay; assay type: cell-based; settings: 2 days
Protocol: as §3, §6

C57bl/6 mice [3] = experiment: CD25 high cells in blood of mice after i.v. injection, flow cytometry; assay type: in vivo
Protocol: FIG. 14: % CD25 high cells in blood of C57bl/6 mice injected 24 h previously with indicated dose of compound 1. CD25 expression was measured by flow cytometry.
Study 13: Compound 1 was administered i.v. to C57bl/6 mice at 0.165 mg/kg to 5 mg/kg. CD25+ cell abundance was increased in animals receiving the highest dose of 5 mg/kg (FIG. 14), as was body weight in the same group (not shown).

[4] = system: Human peripheral blood mononuclear cells (PBMCs); experiment: Marker expression on PBMC by flow cytometry; assay type: cell-based; settings: 24 h
Protocol: Human peripheral blood mononuclear cells (PBMCs) were purified from healthy donors with Ficoll-Paque density centrifugation. Cells were cultured in complete RPMI-1640 media (Invitrogen) supplemented with 25 mM HEPES, L-glutamine, Sodium pyruvate (Sigma), 10% fetal bovine serum, 100 μg/mL penicillin and 100 μg/mL streptomycin (Hyclone) for 24-72 hours in 37° C., 5% CO2 and stimulated with and increasing concentrations of compound 1 and 2. Cells were then washed in PBS and stained with monoclonal antibodies specific for cell surface markers (BD Pharmingen) and analysed with flow cytomtery using a BD FACS Canto II flow cytometer. All samples were tested in duplicates.
Human peripheral blood mononuclear cells (PBMCs) were purified from healthy donors with Ficoll-Paque density centrifugation. Cells were cultured in complete RPMI-1640 medium (Invitrogen) supplemented with 25 mM HEPES, L-glutamine, Sodium pyruvate (Sigma), 10% fetal bovine serum, 100 μg/mL penicillin and 100 μg/mL streptomycin (Hyclone). Cells were stimulated for 24 h (study 1-4) or 48 h to 1 week (study 5) in 37° C., 5% CO2 with increasing concentrations of compound 1 and 2 in tissue culture plates. The cells were removed from the plate, washed in PBS and analysed for expression of cell specific surface markers and MHC class I with flow cytometry using monoclonal antibodies from BD Pharmingen and a FACS Canto II flow cytometer.

[5] = system: Monocytes differentiated into macrophages; experiment: CD80 expression on monocytes differentiated into macrophages, flow cytometry; assay type: cell-based, Human; settings: 24 h
C57bl/6 mice [6] = experiment: MHC class I expression on CD11b+ splenocytes of mice after i.v. injection, flow cytometry; assay type: in vivo; settings: spleen removed 24 h later
Protocol: FIG. 15: % MHC class I high CD11b+ cells in spleen of 3 individual C57bl/6 mice injected 24 h previously with indicated compound. MHC class I and CD11b expression was measured by flow cytometry.
Study 14: Compound 1 or 2 was administered i.v. to C57bl/6 mice.

[7] = system: PBMCs from CMV infected donors; experiment: IFN-gamma secretion from PBMCs of CMV infected donors with CMV antigen, cytometric bead assay; assay type: cell-based, Human; settings: 3 days
Description: FIG. 9: Interferon-gamma secretion (as measured by cytometric bead assay) from PBMCs (from a CMV+ donor) grown with CMV peptides in the presence or absence of compound 1 or 2 for 5 days.
Study 8: PBMCs from CMV infected donors cultured in the presence of CMV antigen where either untreated or exposed to compound 1 or compound 2 for 3 days.

T1 sequence (O60603 21-784): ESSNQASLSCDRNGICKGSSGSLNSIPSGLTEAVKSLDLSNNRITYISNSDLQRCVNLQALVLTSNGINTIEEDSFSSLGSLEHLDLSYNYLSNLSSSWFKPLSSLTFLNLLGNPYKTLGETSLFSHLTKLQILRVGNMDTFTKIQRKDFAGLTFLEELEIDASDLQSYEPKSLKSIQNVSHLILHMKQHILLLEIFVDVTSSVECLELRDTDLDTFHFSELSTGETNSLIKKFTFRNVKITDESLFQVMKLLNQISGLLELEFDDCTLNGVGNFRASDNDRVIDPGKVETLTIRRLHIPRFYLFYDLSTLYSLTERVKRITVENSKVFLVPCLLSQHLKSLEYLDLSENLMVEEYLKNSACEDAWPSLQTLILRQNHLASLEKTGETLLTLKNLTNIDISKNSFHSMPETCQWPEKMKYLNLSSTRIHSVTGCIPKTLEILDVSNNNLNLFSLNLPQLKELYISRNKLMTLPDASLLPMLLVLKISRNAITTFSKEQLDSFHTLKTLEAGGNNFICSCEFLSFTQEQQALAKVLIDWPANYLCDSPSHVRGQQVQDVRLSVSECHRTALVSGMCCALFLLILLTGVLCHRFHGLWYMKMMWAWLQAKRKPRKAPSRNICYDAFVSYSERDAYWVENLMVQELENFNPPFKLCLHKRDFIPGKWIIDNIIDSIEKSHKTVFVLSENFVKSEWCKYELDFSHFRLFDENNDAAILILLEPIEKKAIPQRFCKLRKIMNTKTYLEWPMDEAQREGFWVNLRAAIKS

Compound	stimulation of TLR2 (in words) (human TLR2)	expression of IL-7 receptor a (CD127) on activated CMV specific CD8+ T cells [1]	IL-1beta secretion in PBMCs (PBMCs)	RANTES expression in PBMCs (PBMCs)	IL-1beta secretion in macrophages [2]	RANTES expression in macrophages [2]	IL-1beta secretion in CD4+ T cells (CD4+ T cells)	body weight (C57bl/6 mice [3]; 5 mg/kg group (not shown))	CD25+ cell abundance in blood (C57bl/6 mice [3]; highest dose of 5 mg/kg, 24 h)	CD69 expression on B cells ([4]; 1 μM)	CD69 expression on CD4+ T cells ([4]; 1 μM)	CD80 expression on monocytes [4]	MHC class I (HLA-ABC) expression on B-cells [4]	MHC class I (HLA-ABC) expression on T-cells [4]	MHC class II (HLA-DR) expression on monocytes [4]	CD80 expression on macrophages [5]	splenocyte cells (CD11b+) with high MHC I expression (C57bl/6 mice [6])	IFN-gamma secretion [7]
CC[C@H]1OC(=O)[C@H](C)[C@@H](O[C@H]2C[C@@](C)(OC)[C@@H](O)[C@H](C)O2)[C@H](C)[C@@H](O[C@@H]2O[C@H](C)C[C@H](N(C)C)[C@H]2O)[C@](C)(O)C[C@@H](C)C(=O)[C@H](C)[C@@H](O)[C@]1(C)O [Erythromycin]	little or no stimulation																	
CC[C@H]1OC(=O)[C@H](C)[C@@H](O[C@H]2C[C@@H](N(C)C)[C@H](O)[C@@H](C)O2)[C@H](C)[C@@H](O)[C@](C)(O)C[C@@H](C)CN(C)[C@H](C)[C@@H](O)[C@]1(C)O [Compound 1]	stimulated TLR2	increased expression	slightly	twofold upregulation	increased	high expression	no IL-1beta was induced	increased	increased	upregulated	upregulated	upregulation	upregulation	upregulation	upregulation	upregulated	increase	induced secretion of high levels
CC[C@H]1OC(=O)[C@H](C)[C@@H](O[C@H]2C[C@@](C)(OC)[C@@H](O)[C@H](C)O2)[C@H](C)[C@@H](O[C@@H]2O[C@H](C)C[C@H](N(C)C)[C@H]2O)[C@](C)(O)C[C@@H](C)CN(C)[C@H](C)[C@@H](O)[C@]1(C)O [Azithromycin]	little or no stimulation																	
